In patent publication US6300321A, “Compounds, preparation and use for transferring nucleic acids into cells” (Aventis Pharma S.A., priority 1997, dated 2001):

Legend:
DNA = assay: Physicochemical phase (A, B or C) of the nucleolipid complexes as a function of the charge ratio; conditions: micellar form and in combination with a neutral colipid (DOPE and cholesterol)
Protocol: FIG. 8: Tables indicating the physicochemical phase (phase A, B or C) in which exist the nucleolipid complexes formed with compound 2 in comparison with its amine-containing analogue, as a function of the charge ratio.
The determination of the phases was carried out for compound 2 and for its amine-containing homologue in micellar form and in combination with a neutral colipid (DOPE and cholesterol).
The nucleic acid used is the plasmid pXL3031, as described in the preceding example.
The complexes are prepared at concentrations of 0.25 mg of DNA/ml with an appropriate quantity of lipid as defined in the present invention in the desired charge ratio. The complex is prepared in a medium containing 5% glucose and a 20 mM solution of sodium chloride. 50 μl of nucleolipid complex are then diluted 20-fold in 950 μl of solution containing 5% glucose and a 20 mM solution of sodium chloride.
The size of the complexes was determined by measuring the hydrodynamic diameter by dynamic light scattering with the aid of a Coulter N4+ apparatus.
The complexes formed are negatively charged overall, which makes the crossing of cell membranes difficult. It is thus preferable for the values not to be situated in this region in order to transfect the DNA.
Phase B for which the DNA is completely saturated with the cationic lipid and the complexes are neutral or slightly positive overall. The ionic repulsions being […], this phase is unstable. A phenomenon of "cross-linking" may occur, leading to precipitation of the complexes. The complexes in this state cannot therefore be used as injection.
Phase C for which the DNA is oversaturated with the lipid and the complexes are therefore positive overall. […] The complexes in phase C are therefore particularly suitable for use for the transfer of nucleic acids into cells.
The tables in FIGS. 8, 9, 10 and 11 compare the phases as a function of the charge ratios between the compounds of the invention and their amine-containing analogues, that is to say the cationic lipids whose amidine or guanidine function is replaced by an amino function. It is observed that phase B is shifted towards much lower charge ratios. Thus, the incorporation of amidine functions into the cationic head contributes to the increase in the affinity of the compounds for DNA. This constitutes an important property of the compounds of the invention because the complexes which they form with DNA may be used in phase C without as a result being at excessively high charge ratios, with the beneficial effects which result therefrom on toxicity.

[1] = test system: NIH3T3, HepG2 and HeLa cells; assay: In vitro transfection in the absence and in the presence of serum proteins; type: cell-based; conditions: with versus without serum proteins; FIG. 3
Protocol: FIG. 3: Measurement of the in vitro efficiency of transfection of compound 1 according to the invention into NIH3T3, HepG2 and HeLa cells, in the absence (white bars) and in the presence (black bars) of serum proteins and in comparison with its amine-containing homologue (RPR120535).
(§1) The measurements were carried out at different charge ratios which are plotted on the x-axis. The expression of luciferase is plotted on the y-axis and is expressed in RLU (Relative Light Unit) per well.
(§2) The nucleic acid used is the plasmid pXL2774 (WO 97/10343) comprising the gene encoding luciferase under the control of the human cytomegalovirus (CMV) promoter.
The nucleic acid solutions are diluted to 20 μg/ml in physiological saline (0.15 M sodium chloride NaCl). […]
The cells are washed with twice 500 μl of medium free of serum proteins and grown again either in serum-free medium (transfection in the absence of serum), or in complete medium (transfection in the presence of serum). […] When the cells are transfected in the absence of serum, the growth medium is supplemented 2 hours after transfection with the appropriate quantity of serum.
The transfection efficiency is evaluated 48 hours after the transfection by measuring the expression of luciferase according to the recommendations given for the use of the Promega kit [Luciferase Assay System]. […]

NIH3T3 cells [2] = assay: Toxicity of the transfectant mixtures (protein concentrations in the cell lysates); type: cell-based
Protocol: (§3) The cells are cultured under appropriate conditions in 24-well microplates (2 cm^2 /well) and are transfected while they are in the exponential growth phase and at 50-70% confluence.
(§4) The cells are washed with twice 500 μl of medium free of serum proteins and grown again either in serum-free medium (transfection in the absence of serum), or in complete medium (transfection in the presence of serum). 50 μl of transfectant mixture [i.e. 0.5 μg DNA/well] are added to the cells [3 wells/condition DNA vector]. When the cells are transfected in the absence of serum, the growth medium is supplemented 2 hours after transfection with the appropriate quantity of serum.
(§5) The transfection efficiency is evaluated 48 hours after the transfection by measuring the expression of luciferase according to the recommendations given for the use of the Promega kit [Luciferase Assay System]. The toxicity of the transfectant mixtures is estimated by a measurement of the protein concentrations in the cell lysates.
(§6) Compound 1 was used in comparison with the cationic lipid RPR120535 (TFA salt) [described in patent application WO 97/18185 incorporated into the present application by way of reference] as DNA vector to transfect three different cell lines: NIH3T3 cells, HepG2 cells and HeLa cells. […] The transfection efficiency for compound 1 and for the cationic lipid for comparison in the three cell types is represented in FIG. 2, for nmol of compound/μg of DNA ratios of between 3 and 12.

HepG2 cells [3] = assay: as above; type: cell-based
Protocol: as §3, §4, §5, §6

HeLa cells [4] = assay: as above; type: cell-based
Protocol: as §3, §4, §5, §6

NIH3T3 cells [5] = assay: In vitro transfection of luciferase plasmid pXL2774; type: cell-based; conditions: FIG. 2, absence of serum proteins, 48 hours
Protocol: (§7) FIG. 2: Measurement of the in vitro efficiency of transfection of compound 1 according to the invention into NIH3T3, HepG2 and HeLa cells, in the absence of serum proteins and in comparison with its amine-containing homologue (RPR120535).
as §1, §2
(§8) The nucleic acid solutions are diluted to 20 μg/ml in physiological saline (0.15 M sodium chloride NaCl).
(§9) The products described in the invention are dissolved in water at a concentration varying from 60 to 240 μM and mixed volume for volume with the DNA solution; the final saline concentration is 75 mM.
as §3, §4, §5, §6

HepG2 cells [6] = assay: as above; type: cell-based
Protocol: as §7, §1, §2, §8, §9, §3, §4, §5, §6

HeLa cells [7] = assay: as above; type: cell-based
Protocol: as §7, §1, §2, §8, §9, §3, §4, §5, §6

[8] = FIG. 2, absence of serum proteins, 48 hours

## CCCCCCCCCCCCCCN(CCCCCCCCCCCCCC)C(=O)CNC(=O)CNCCCNCCCCNCCCNC(=N)N [compound 3, N-ditetradecylcarbamoylmethyl-2-{3-[4-(3-guanidinopropylamino)butylamino]propylamino}acetamide]
DNA
  shift of the unstable phase B in comparison with the amine-containing analogue: a shift is observed from the unstable phase B towards lower charge ratios

## CCCCCCCCCCCCCCCCCCN(CCCCCCCCCCCCCCCCCC)C(=O)CNC(=O)CNCCCNCCCCNCCCN [RPR120535, reference compound]
[1]
  transfection levels with or without serum proteins: a strong inhibition is observed due to the presence of the serum proteins

## CCCCCCCCCCCCCCCCCCN(CCCCCCCCCCCCCCCCCC)C(=O)CNCCN(CCNC(=N)N)CCNC(=N)N [compound 2, 2-{2-[bis(2-guanidinoethyl)amino]ethylamino}-N,N-dioctadecylacetamide]
DNA
  shift of the unstable phase B in comparison with the amine-containing analogue: a shift is observed from the unstable phase B towards lower charge ratios

## CCCCCCCCCCCCCCN(CCCCCCCCCCCCCC)C(=O)CNC(=O)CN(CCCCNCCCNC(=N)N)CCCNC(=N)N [compound 5, N-ditetradecylcarbamoylmethyl-2-{(3-guanidinopropyl)-[4-(3-guanidinopropylamino)butyl]amino}acetamide]
DNA
  shift of the unstable phase B in comparison with the amine-containing analogue: a shift is observed from the unstable phase B towards lower charge ratios

## CCCCCCCCCCCCCCCCCCN(CCCCCCCCCCCCCCCCCC)C(=O)CNC(=O)CNCCCNCCCCNCCCNC(=N)N [compound 1, N-dioctadecylcarbamoylmethyl-2-{3-[4-(3-guanidinopropylamino)butylamino]propylamino}acetamide]
NIH3T3 cells [2]
  toxicity of the transfectant mixture: no significant toxicity was detected
HepG2 cells [3]
  toxicity of the transfectant mixture: no significant toxicity was detected
HeLa cells [4]
  toxicity of the transfectant mixture: no significant toxicity was detected
NIH3T3 cells [5]
  ratio of cationic lipid to DNA giving the maximum transfection efficiency: 6 nanomoles cationic lipid/μg of DNA
HepG2 cells [6]; [8]
  ratio of cationic lipid to DNA giving the maximum transfection efficiency: 9 nanomoles cationic lipid/μg of DNA
HepG2 cells [6]; absence of serum
  luciferase expression level relative to the product tested in comparison (RPR120535): 2 to 4 times higher
HeLa cells [7]; [8]
  ratio of cationic lipid to DNA giving the maximum transfection efficiency: 9 nanomoles cationic lipid/μg of DNA
HeLa cells [7]; absence of serum
  luciferase expression level relative to the product tested in comparison (RPR120535): 2 to 4 times higher
[1]
  transfection levels with or without serum proteins: the transfection levels with or without serum proteins are the same

## CCCCCCCCCCCCCCN(CCCCCCCCCCCCCC)C(=O)CNC(=O)CNCCCN(CCCCN(CCCNC(=N)N)CCCNC(=N)N)CCCNC(=N)N [compound 6, 2-{3-[{4-[bis(3-guanidinopropyl)amino]butyl}-(3-guanidinopropyl)amino]-propylamino}-N-ditetradecylcarbamoylmethylacetamide]
DNA
  shift of the unstable phase B in comparison with the amine-containing analogue: a shift is observed from the nstable phase B towards lower charge ratios
